# Measurements published in patent US20240408169A1 (priority 2023, published 2024).
# *1 amine or outer side, *2 acyl side, *3 side chain or, on linkers, in order; H or OH if unused. Where a SMILES comes first, the peptide text is derived from it. Bridges are numbered along the chain shown (N, C = ends). [ ]: non-standard residue; d: D form. The star is where a group is joined. NMe(hhhLys) = CN([C@@H](CCCCCCCN[*:3])C(=O)[*:2])[*:1]; Cyclopropanecarbonyl(1-CF3) = O=C(C1(C(F)(F)F)CC1)*; NMePhe(2,5-Cl2) = CN[C@@H](Cc1cc(Cl)ccc1Cl)C(=O)O; Pro(trans-4-F) = O=C(O)[C@@H]1C[C@@H](F)CN1; X155 = C[C@@](O)(C(=O)*)C(F)(F)F; Gly(cPr) = N[C@H](C(=O)O)C1CC1
# Legend:
# OVCAR3 cells = test: MTT proliferation assay, OVCAR3; assay type: cell-based; settings: 5 days compound exposure, 1:3 serial dilution starting at 10 μM;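 also: compound given as an 8- or 10-point series, one day after plating, with exposure covering roughly 3-4 cell doublings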
# CyclinE1/CDK2 = target: T1, CyclinE1/CDK2 (Homo sapiens, UniProt P24864); test: Fluorescence Polarization (FP) competitive binding assay, Cyclin E1/Cdk2; settings: 10 nM Cyclin E1/Cdk2, 2 nM FAM probe; average of 2-3 independent experiments; read-out: Cyclin E FP IC50;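 also: readings taken after two-hour equilibration at room temperature in HEPES buffer with NaCl, DTT, NP-40 and BSA, IC50 fitted from eight-concentration serial dilution series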
# T1 construct: purchased Eurofins, discovery 14-475
# CyclinA2/CDK2 = target: T2, CyclinA2/CDK2 (Homo sapiens, UniProt P20248); test: Fluorescence Polarization (FP) competitive binding assay, Cyclin A2/Cdk2; settings: 8 nM Cyclin A2/Cdk2, 2 nM FAM probe; average of 2-3 independent experiments; read-out: Cyclin A FP IC50;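 also: plates equilibrated two hours at room temperature before polarization reading, IC50 fitted from eight-concentration compound titration curves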
# T2 construct: purchased CRELUX Protein Services
# CyclinB1/CDK1 = target: T3, CyclinB1/CDK1 (Homo sapiens, UniProt P14635); test: Fluorescence Polarization (FP) competitive binding assay, Cyclin B1/Cdk1; settings: 10 nM Cyclin B1/Cdk1, 2 nM FAM probe; average of 2-3 independent experiments; read-out: Cyclin B FP IC50;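 also: fluorescence polarization read after equilibration at room temperature, with IC50 taken from serially diluted dose-response curves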
# T3 construct: purchased Eurofins, discovery 14-450
# NCI-H1048 cells = test: MTT proliferation assay, NCI-H1048; assay type: cell-based; settings: 5 days compound exposure, 1:3 serial dilution starting at 10 μM;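 also: Dose-response in 96-well plates over 8 or 10 concentration points, with exposure spanning 3-4 cell doublings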
SMILES,GI50 (OVCAR3 cells) [nM],IC50 (CyclinE1/CDK2) [nM],IC50 (CyclinA2/CDK2) [nM],IC50 (CyclinB1/CDK1) [nM],GI50 (NCI-H1048 cells) [nM]
"CC(C)C[C@@H]1NC(=O)[C@@H](N(C)C(=O)[C@@H](NC(=O)[C@@H]2C[C@@H](F)CN2C(=O)C2(C(F)(F)F)CC2)C2CC2)CC=CCCCCNC(=O)[C@H](Cc2cc(Cl)ccc2Cl)N(C)C1=O (single isomer, unassigned) [Example 5-P1]",690,700,790,20,390
"CC(C)C[C@@H]1NC(=O)[C@@H](N(C)C(=O)[C@@H](NC(=O)[C@@H]2C[C@@H](F)CN2C(=O)C2(C(F)(F)F)CC2)C2CC2)CC=CCCCCNC(=O)[C@H](Cc2cc(Cl)ccc2Cl)N(C)C1=O (single isomer, unassigned) [Example 5-P2]",560,460,560,20,290
"CC(=O)N1C2CCC1CC(c1ccc(F)cc1C[C@H]1C(=O)N(C)CCCCCCC[C@H](N(C)C(=O)[C@@H](NC(=O)[C@@H]3C[C@@H](F)CN3C(=O)C3(C(F)(F)F)CC(F)(F)C3)C3CC3)C(=O)N[C@@H](CC(C)C)C(=O)N1C)C2 (single isomer, unassigned) [Example 59-P1]",20,850,120,20,20
"CC(=O)N1C2CCC1CC(c1ccc(F)cc1C[C@H]1C(=O)N(C)CCCCCCC[C@H](N(C)C(=O)[C@@H](NC(=O)[C@@H]3C[C@@H](F)CN3C(=O)C3(C(F)(F)F)CC(F)(F)C3)C3CC3)C(=O)N[C@@H](CC(C)C)C(=O)N1C)C2 (single isomer, unassigned) [Example 59-P2]",50,870,180,20,60
"CC(C)C[C@@H]1NC(=O)[C@@H](N(C)C(=O)[C@@H](NC(=O)[C@@H]2C[C@@H](F)CN2C(=O)C2(C(F)(F)F)CC(F)(F)C2)C2CC2)CC=CCCCCNC(=O)[C@H](Cc2cc(Cl)cnc2OC2CC2)N(C)C1=O (single isomer, unassigned) [Example 102-P1]",810,1110,310,20,350
"CC(C)C[C@@H]1NC(=O)[C@@H](N(C)C(=O)[C@@H](NC(=O)[C@@H]2C[C@@H](F)CN2C(=O)C2(C(F)(F)F)CC(F)(F)C2)C2CC2)CC=CCCCCNC(=O)[C@H](Cc2cc(Cl)cnc2OC2CC2)N(C)C1=O (single isomer, unassigned) [Example 102-P2]",130,310,120,20,80
"CC(C)C[C@@H]1NC(=O)[C@@H](N(C)C(=O)[C@@H](NC(=O)[C@@H]2C[C@@H](F)CN2C(=O)C2(C(F)(F)F)CCC2)C2CC2)CC=CCCCCNC(=O)[C@H](Cc2cc(Cl)cnc2OC2CC2)N(C)C1=O (single isomer, unassigned) [Example 107-P2]",320,180,110,20,190
"Cc1nnc(-c2ccc(Cl)cc2C[C@H]2C(=O)NCCCCC=CC[C@H](N(C)C(=O)[C@@H](NC(=O)[C@@H]3C[C@@H](F)CN3C(=O)C3(C(F)(F)F)CCC3)C3CC3)C(=O)N[C@@H](CC(C)C)C(=O)N2C)o1 (single isomer, unassigned) [Example 117-P1]",180,340,80,20,230
"Cc1nnc(-c2ccc(Cl)cc2C[C@H]2C(=O)NCCCCC=CC[C@H](N(C)C(=O)[C@@H](NC(=O)[C@@H]3C[C@@H](F)CN3C(=O)C3(C(F)(F)F)CCC3)C3CC3)C(=O)N[C@@H](CC(C)C)C(=O)N2C)o1 (single isomer, unassigned) [Example 117-P2]",60,160,60,20,90
"Cc1nnc(-c2ccc(Cl)cc2C[C@H]2C(=O)NCCCCC=CC[C@H](N(C)C(=O)[C@@H](NC(=O)[C@@H]3C[C@@H](F)CN3C(=O)C3(C(F)(F)F)CC(F)(F)C3)C3CC3)C(=O)N[C@@H](CC(C)C)C(=O)N2C)o1 (single isomer, unassigned) [Example 118-P1]",170,740,110,20,180
"Cc1nnc(-c2ccc(Cl)cc2C[C@H]2C(=O)NCCCCC=CC[C@H](N(C)C(=O)[C@@H](NC(=O)[C@@H]3C[C@@H](F)CN3C(=O)C3(C(F)(F)F)CC(F)(F)C3)C3CC3)C(=O)N[C@@H](CC(C)C)C(=O)N2C)o1 (single isomer, unassigned) [Example 118-P2]",50,300,60,20,50
"CC(C)C[C@@H]1NC(=O)[C@@H](N(C)C(=O)[C@@H](NC(=O)[C@@H]2C[C@@H](F)CN2C(=O)C2(C(F)(F)F)CCC2)C2CC2)CC=CCCCCNC(=O)[C@H](Cc2cc(Cl)ccc2Oc2ncccn2)N(C)C1=O (single isomer, unassigned) [Example 156-P1]",530,830,890,20,480
"CC(C)C[C@@H]1NC(=O)[C@@H](N(C)C(=O)[C@@H](NC(=O)[C@@H]2C[C@@H](F)CN2C(=O)C2(C(F)(F)F)CCC2)C2CC2)CC=CCCCCNC(=O)[C@H](Cc2cc(Cl)ccc2Oc2ncccn2)N(C)C1=O (single isomer, unassigned) [Example 156-P2]",100,240,350,20,90
CC[C@H](NC(=O)[C@@H]1C[C@@H](F)CN1C(=O)C1(C(F)(F)F)CC1)C(=O)N[C@H]1CC=CCCCCNC(=O)[C@H](Cc2cc(Cl)ccc2Cl)N(C)C(=O)[C@H](CC(C)C)NC1=O [Example 2],410,100,110,20,380
CC(C)C[C@@H]1NC(=O)[C@@H](NC(=O)CNC(=O)[C@@H]2C[C@@H](F)CN2C(=O)C2(C(F)(F)F)CC2)CC=CCCCCNC(=O)[C@H](Cc2cc(Cl)ccc2Cl)N(C)C1=O [Example 3],720,680,620,20,460
CC(C)C[C@@H]1NC(=O)[C@@H](NC(=O)[C@@H](NC(=O)[C@@H]2C[C@@H](F)CN2C(=O)C2(C(F)(F)F)CC(F)(F)C2)C2CC2)CC=CCCCCNC(=O)[C@H](Cc2cc(Cl)ccc2Cl)N(C)C1=O [Example 4],60,100,90,20,120
CC(C)C[C@@H]1NC(=O)[C@@H](NC(=O)[C@@H](NC(=O)[C@@H]2C[C@@H](F)CN2C(=O)C2(C(F)(F)F)CC(F)(F)C2)C2CC2)CCCCCCCNC(=O)[C@H](Cc2cc(Cl)ccc2Cl)N(C)C1=O [Example 8],30,100,30,20,20
"CC(C)C[C@@H]1NC(=O)[C@@H](N(C)C(=O)[C@@H](NC(=O)[C@@H]2C[C@@H](F)CN2C(=O)C2(C(F)(F)F)CC2)C2CC2)CCCCCCCNC(=O)[C@H](Cc2cc(Cl)ccc2Cl)N(C)C1=O [Example 9] ({Cyclopropanecarbonyl(1-CF3)}-[Pro(trans-4-F)][Gly(cPr)][NMe(hhhLys)]L[NMePhe(2,5-Cl2)]; lactam 3-C)",110,400,250,20,80
"CC(C)C[C@@H]1NC(=O)[C@@H](N(C)C(=O)[C@@H](NC(=O)[C@@H]2C[C@@H](F)CN2C(=O)[C@@](C)(O)C(F)(F)F)C2CC2)CCCCCCCNC(=O)[C@H](Cc2cc(Cl)ccc2Cl)N(C)C1=O [Example 10] (X155-[Pro(trans-4-F)][Gly(cPr)][NMe(hhhLys)]L[NMePhe(2,5-Cl2)]; lactam 3-C)",30,120,100,20,20
CC(C)C[C@@H]1NC(=O)[C@@H](NC(=O)[C@@H](NC(=O)[C@@H]2C[C@@H](F)CN2C(=O)C2(C(F)(F)F)CC2)C2CC2)CC=CCCCCN(C)C(=O)[C@H](Cc2cc(Cl)ccc2Cl)N(C)C1=O [Example 11],210,100,170,20,80
